Laboratory results: ChEMBL document CHEMBL4251581, “Synthesis and antimycobacterial activity of triterpeni≿ A-ring azepanes” (Eur J Med Chem, 2018)
≈ marks a conversion by molar mass, not a printed value.

Experiments:
Type in all cases: functional
[1] = tested on: Mycobacterium tuberculosis; assay: Antimycobacterial activity against isoniazid-resistant Mycobacterium tuberculosis H37Rv INH-R1 harboring katG Y155 truncated mutant
[2] = tested on: Mycobacterium tuberculosis; assay: Antimycobacterial activity against isoniazid-resistant Mycobacterium tuberculosis H37Rv ATCC 35822 INH-R2
[3] = tested on: Mycobacterium tuberculosis; assay: Antimycobacterial activity against fluoroquinolone-resistant Mycobacterium tuberculosis H37Rv FQ-R1 harboring unidentified mutation
[4] = tested on: Mycobacterium tuberculosis; assay: Antimycobacterial activity against rifampicin-resistant Mycobacterium tuberculosis H37Rv ATCC 35828 RIF-R2
[5] = tested on: Mycobacterium tuberculosis; assay: Antimycobacterial activity against rifampicin-resistant Mycobacterium tuberculosis H37Rv RIF-R1 harboring rpoB S522L mutant
[6] = tested on: Mycobacterium tuberculosis; assay: Antimycobacterial activity against ethionamide-resistant Mycobacterium tuberculosis H37Rv ATCC 35830
[7] = tested on: Mycobacterium tuberculosis; assay: Antimycobacterial activity against streptomycin-resistant Mycobacterium tuberculosis H37Rv ATCC 35820
[8] = tested on: Mycobacterium tuberculosis; assay: Antimycobacterial activity against kanamycin-resistant Mycobacterium tuberculosis H37Rv ATCC 3582
[9] = tested on: Mycobacterium tuberculosis; assay: Antimycobacterial activity against isoniazid-resistant Mycobacterium tuberculosis H37Rv ATCC 35822
[10] = tested on: Mycobacterium tuberculosis; assay: Antimycobacterial activity against ethambutol-resistant Mycobacterium tuberculosis H37Rv ATCC 35837
[11] = tested on: Mycobacterium tuberculosis; assay: Antimycobacterial activity against ofloxacin-resistant Mycobacterium tuberculosis H37Rv ATCC 35828
[12] = tested on: Mycobacterium tuberculosis; assay: Antimycobacterial activity against rifampicin-resistant Mycobacterium tuberculosis H37Rv ATCC 35828
[13] = tested on: Mycobacterium tuberculosis; assay: Antimycobacterial activity against streptomycin-resistant Mycobacterium tuberculosis H37Rv ATCC 35820 by microplate alamar blue assay

CC1(C)CC[C@]2(COC(=O)/C=C/c3ccccc3)CC[C@]3(C)C(=CC[C@@H]4[C@@]5(C)CCCNC(C)(C)[C@@H]5CC[C@]43C)[C@H]2C1
MIC [1]: 13 µg/mL (≈ 22.7 µM) | MIC [2]: 12 µg/mL (≈ 21 µM) | MIC [3]: 13 µg/mL (≈ 22.7 µM) | MIC [4]: 14 µg/mL (≈ 24.5 µM) | MIC [5]: 7.4 µg/mL (≈ 12.9 µM)

C=C(C)[C@@H]1CC[C@]2(CO)CC[C@]3(C)[C@H](CC[C@@H]4[C@@]5(C)CCCNC(C)(C)[C@@H]5CC[C@]43C)[C@@H]12
MIC [6]: 10 µg/mL (≈ 22.6 µM) | MIC [7]: 5 µg/mL (≈ 11.3 µM) | MIC [8]: 10 µg/mL (≈ 22.6 µM) | MIC [9]: 5 µg/mL (≈ 11.3 µM) | MIC [10]: 5 µg/mL (≈ 11.3 µM)

COc1ccc(/C=C/C(=O)OC[C@]23CC[C@@H](C)[C@H](C)[C@@H]2C2=CC[C@@H]4[C@@]5(C)CCCNC(C)(C)[C@@H]5CC[C@@]4(C)[C@]2(C)CC3)cc1
MIC [1]: 20 µg/mL (≈ 33.2 µM) | MIC [2]: 17 µg/mL (≈ 28.2 µM) | MIC [3]: 20 µg/mL (≈ 33.2 µM) | MIC [4]: 21 µg/mL (≈ 34.9 µM) | MIC [5]: 24 µg/mL (≈ 39.9 µM)

C[C@H]1[C@H](C)CC[C@]2(CO)CC[C@]3(C)C(=CC[C@@H]4[C@@]5(C)CCCNC(C)(C)[C@@H]5CC[C@]43C)[C@@H]12
MIC [1]: 37 µg/mL (≈ 83.8 µM) | MIC [2]: 39 µg/mL (≈ 88.3 µM) | MIC [3]: 34 µg/mL (≈ 77 µM) | MIC [4]: 51 µg/mL (≈ 115 µM) | MIC [5]: 29 µg/mL (≈ 65.6 µM)

C=C(C)[C@@H]1CC[C@]2(COC(=O)CCC(=O)O)CC[C@]3(C)[C@H](CC[C@@H]4[C@@]5(C)CCCNC(C)(C)[C@@H]5CC[C@]43C)[C@@H]12
MIC [11]: 6 µg/mL (≈ 11.1 µM) | MIC [12]: 6 µg/mL (≈ 11.1 µM) | MIC [9]: 12 µg/mL (≈ 22.1 µM)

C[C@H]1[C@H](C)CC[C@]2(COC(=O)/C=C/c3ccccc3)CC[C@]3(C)C(=CC[C@@H]4[C@@]5(C)CCCNC(C)(C)[C@@H]5CC[C@]43C)[C@@H]12
MIC [1]: 28 µg/mL (≈ 49 µM) | MIC [2]: 15 µg/mL (≈ 26.2 µM) | MIC [3]: 27 µg/mL (≈ 47.2 µM) | MIC [4]: 24 µg/mL (≈ 42 µM) | MIC [5]: 19 µg/mL (≈ 33.2 µM)

C=C(C)[C@@H]1CC[C@]2(COC(=O)/C=C/c3ccccc3)CC[C@]3(C)[C@H](CC[C@@H]4[C@@]5(C)CCCNC(C)(C)[C@@H]5CC[C@]43C)[C@@H]12
MIC [11]: 1 µg/mL (≈ 1.75 µM) | MIC [12]: 1 µg/mL (≈ 1.75 µM) | MIC [9]: 4 µg/mL (≈ 6.99 µM)

CC1(C)CC[C@]2(CO)CC[C@]3(C)C(=CC[C@@H]4[C@@]5(C)CCCNC(C)(C)[C@@H]5CC[C@]43C)[C@H]2C1
MIC [1]: 34 µg/mL (≈ 77 µM) | MIC [2]: 15 µg/mL (≈ 34 µM) | MIC [3]: 44 µg/mL (≈ 99.6 µM) | MIC [4]: 69 µg/mL (≈ 156 µM) | MIC [5]: 39 µg/mL (≈ 88.3 µM)

NNC(=O)c1ccncc1 [ISONIAZID]
MIC [12]: 0.02 µg/mL (≈ 0.146 µM) | MIC [1]: >200 µg/mL | MIC [2]: 1.4 µg/mL (≈ 10.2 µM) | MIC [3]: 29 µg/mL (≈ 211 µM) | MIC [4]: 1.3 µg/mL (≈ 9.48 µM) | MIC [5]: 1.2 µg/mL (≈ 8.75 µM)

CO[C@H]1/C=C/O[C@@]2(C)Oc3c(C)c(O)c4c(O)c(c(/C=N/N5CCN(C)CC5)c(O)c4c3C2=O)NC(=O)/C(C)=C\C=C\[C@H](C)[C@H](O)[C@@H](C)[C@@H](O)[C@@H](C)[C@H](OC(C)=O)[C@@H]1C [RIFAMPIN]
MIC [11]: 0.195 µg/mL (≈ 0.237 µM) | MIC [1]: 0.015 µg/mL (≈ 0.0182 µM) | MIC [2]: 100 µg/mL (≈ 122 µM) | MIC [9]: 0.05 µg/mL (≈ 0.0608 µM) | MIC [3]: 0.37 µg/mL (≈ 0.45 µM) | MIC [4]: 0.62 µg/mL (≈ 0.753 µM) | MIC [5]: 0.29 µg/mL (≈ 0.352 µM)

C[C@H]1[C@H](C)CC[C@]2(C(=O)O)CC[C@]3(C)C(=CC[C@@H]4[C@@]5(C)CC[C@H](O)C(C)(C)[C@@H]5CC[C@]43C)[C@H]12 [URSOLIC ACID]
MIC [13]: 12.5 µg/mL (≈ 27.4 µM)
